From PMC7661526, “Antibiofilm effects of N,O-acetals derived from 2-amino-1,4-naphthoquinone are associated with downregulation of important global virulence regulators in methicillin-resistant Staphylococcus aureus” (Scientific Reports, 2020) come the findings set out here.

≈ marks a conversion by molar mass, not a printed value. Where “and” joins values, the source holds several entries; their conditions need not be identical. Equal entries are not always repeated.

The subject of series [1] is psmα3. In words: Real-time RT-qPCR of biofilm-associated genes. It is filed as cell-based, Staphylococcus aureus. (In qPCR the cycle at which signal appears reflects the starting amount.)
Series [2] relates to MRSA strain BMB9393 biofilm. As to the kind of experiment: Biofilm development on polystyrene, crystal violet. The settings on record: 1/4MIC (7b 32 µg/mL, 7c 16 µg/mL); strain BMB9393, 24 h, crystal violet. It is filed as cell-based, Staphylococcus aureus. The method, then:
Biofilms were formed on polystyrene surfaces using the BEC representative, strain BMB9393. […] The same volume of the bacterial culture in TSB-Glu (37 °C/18 h; at 250 rpm) diluted 1/100 in the same broth was added to the wells. After incubation (37 °C/24 h), supernatants were gently removed, rinsed with distilled water, and treated with crystal violet solution as described. […] Eight independent tests with three replicates each were performed. Controls were inoculated with the same bacterial inoculum but using only TSB-Glu with 2% (v/v) DMSO, final concentration.

A short description of series [3]: Cytotoxicity assay (MTT). The following applies: African green monkey, Vero cell monolayers. The method, then:
(§1) Plates were incubated for 1 h, the supernatant again removed, and 200 µL dimethyl sulfoxide (DMSO) were added to each well to dissolve the formazan crystals for 10 min. Absorbance was measured at 570 nm using an ELISA reader (Thermo Plate, TP-READER, Thermo Fisher Scientific). […] The selectivity index (SI) was calculated as follows: SI (µg/mL) = CC50/MIC[17]. Three independent experiments were performed in triplicate. Controls were performed using 2% (v/v) DMSO only.

In series [4] the test system is MRSA strain CR15-071 (USA100) cells persistent to vancomycin. In words: Vancomycin-persistent cells, high bacterial load on TSA plates. It is filed as cell-based, Staphylococcus aureus. The following applies: 1MIC derivative (128 µg/mL) plus vancomycin 4MIC (8 µg/mL), ~10^9 CFU/ml. On the procedure:
For this test, we choose the MRSA strain CR15-071 representative of the ST5-SCCmecII lineage (NY/Japan-USA100 clone), since this MRSA has replaced the ST239-SCCmecIII (the Brazilian clone) in this country, and is now the most frequent MRSA lineage in Brazilian hospitals. […]. The plates were incubated at 37 °C/24 h before being examined. […]. Bacterial growth was determined by removing persistent cells from the plates and determining UFC/ml. Controls were also performed using 2% (v/v) DMSO only. Three independent experiments were performed in triplicate.

In series [5] the test system is sarA. As to the kind of experiment: Real-time RT-qPCR of global regulators. It is filed as cell-based, Staphylococcus aureus.
Series [6] in a line: in vitro. The settings on record: human, pH 7.4. The method, then:
(§2) Erythrocytes were collected from three human volunteers in a citrate tube and washed three times (3×) with PBS (pH 7.4). All derivatives were incubated with the PBS-erythrocyte suspension for 3 h at 37 °C. The hemolysis with the release of hemoglobin was quantified by the spectrophotometric reading of the supernatant at 545 nm. Hemolysis less than 10% represented hemocompatibility and non-toxicity against erythrocyte membranes. For the positive control, the human erythrocytes were lysed with 1% (v/v) Triton X-100. The negative control was performed with 1% (v/v) DMSO only (final concentration). […] All methods were carried out in accordance with relevant guidelines and regulations. In addition, informed consent was obtained from all volunteers. Three independent experiments were performed in triplicate.

Series [7] has as its system Vero cell line. As to the kind of experiment: Cytotoxicity assay (MTT). The settings on record: Vero cells, 24 h, MTT. On the procedure: as §1
For series [8], the system named is human erythrocytes. In words: Hemocompatibility assay. The settings on record: highest concentration evaluated (300 µg/mL), 3 h at 37 °C. On the procedure:
as §2

A word on the CC50: it is the concentration at which the toxic effect on the cells reaches its halfway point. In the case of `CCOCNC1=CC(=O)c2ccccc2C1=O` [7b, 2-(ethoxymethyl)-amino-1,4-naphthoquinone], in series [1], the “Reduction of psmα3 expression” value amounted to 97.75 ± 0.6%. Further, the “Reduction of accumulated biofilm matrix” value in series [2] is 87.4% ± 1.9% and 88%. Also, the CC50 at 24 h in series [3] was 219.9 ± 1.87 µg/mL (≈ 951 µM). Moreover, the “Reduction in the total of vancomycin-persistent cells” value in series [4] is “complete inhibition of persistent cells”. Further, the “Reduction of sarA gene expression” value in series [5] is 65.5 ± 6.0%. Besides, the hemolysis at 3 h, 300 µg/mL in series [6] was 2.7 ± 0.3%.

For the compound `C#CCOCNC1=CC(=O)c2ccccc2C1=O` [7c, 2-(propynyloxymethyl)-amino-1,4-naphthoquinone], in series [1], the “Reduction of psmα3 expression” value worked out at 87.73 ± 4.3%. Also, the “Reduction of accumulated biofilm matrix” value in series [2] is 75.6% ± 3.7% and 75%. The 50% cytotoxic concentration (CC50) in series [7] is reported as 20.15 ± 2.11 µg/mL (≈ 83.5 µM). In addition, in series [5], the “Reduction of sarA gene expression” value is reported as “no important effect”. For the same compound, the “Hemolysis, maximum values” in series [8] turned out to be 1.5 ± 0.5%.
